Results reported in the supplement of paper PMC4862054.

Legend:
BT-549 [1] = details: 72 h
Experimental: (§1)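 Drug sensitivity and resistance testing (DSRT) of breast cancer cell lines in 384-well plates, 5 concentrations in 10-fold dilutions over a compound-specific 10,000-fold range. After 72 h, cytotoxicity was read by CellTox Green fluorescence and viability by CellTiter-Glo luminescence (multiplexed), normalised to DMSO and benzethonium chloride controls. EC50 is the inflection point of the fitted dose-response curve (bottom asymptote free, so it can be relative for partial curves) and is censored at the highest tested concentration. Rows with DSS 0 (no meaningful response) were excluded.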

BT-474 = details: 72 h
Experimental: as §1

MDA-MB-468 = details: 72 h
Experimental: as §1

MDA-MB-453 [2] = details: 72 h
Experimental: as §1

Hs578T [3] = details: 72 h
Experimental: as §1

MCF-10A [4] = details: 72 h
Experimental: as §1

DU-4475 [5] = details: 72 h
Experimental: as §1

MFM-223 [6] = details: 72 h
Experimental: as §1

HCC1937 [7] = details: 72 h
Experimental: as §1

CAL-51 [8] = details: 72 h
Experimental: as §1

MDA-MB-231 [9] = details: 72 h
Experimental: as §1

HDQ-P1 [10] = details: 72 h
Experimental: as §1

HCC1599 [11] = details: 72 h
Experimental: as §1

HCC1143 [12] = details: 72 h
Experimental: as §1

CAL-85-1 [13] = details: 72 h
Experimental: as §1

BT-549 [14] = details: 72 h; remark: listed apart in the source
In short: (§2)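 Two sequential readouts followed a 72 h incubation of breast cancer cell lines with compound at 5 concentrations in 10-fold steps over a compound-specific 10,000-fold range: CellTox Green fluorescence (485/520 nm) for cell death, then CellTiter-Glo luminescence, after 10 min at room temperature, for viability. Each plate was normalised to 0.1 % DMSO and a positive kill control. Dose-response curves were fitted for EC50, censored at the top concentration.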

MDA-MB-453 [15] = details: 72 h; remark: listed apart in the source
In short: as §2

Hs578T [16] = details: 72 h; remark: listed apart in the source
In short: as §2

MCF-10A [17] = details: 72 h; remark: listed apart in the source
In short: as §2

MDA-MB-436 = details: 72 h
In short: as §2

DU-4475 [18] = details: 72 h; remark: listed apart in the source
In short: as §2

MFM-223 [19] = details: 72 h; remark: listed apart in the source
In short: as §2

HCC1937 [20] = details: 72 h; remark: listed apart in the source
In short: as §2

CAL-51 [21] = details: 72 h; remark: listed apart in the source
In short: as §2

MDA-MB-231 [22] = details: 72 h; remark: listed apart in the source
In short: as §2

CAL-120 = details: 72 h
In short: as §2

CAL-148 = details: 72 h
In short: as §2

SK-BR-3 = details: 72 h
In short: as §2

HCC1599 [23] = details: 72 h; remark: listed apart in the source
In short: as §2

HCC1143 [24] = details: 72 h; remark: listed apart in the source
In short: as §2

CAL-85-1 [25] = details: 72 h; remark: listed apart in the source
In short: as §2

HDQ-P1 [26] = experiment: drug sensitivity score (DSS), CellTox Green (DSS (AUC-based score)); higher = stronger drug effect (viability inhibition or cytotoxicity); extreme values may be limits of the assay; details: incubation time: 72 h
In short: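 Breast cancer cell lines were seeded in 20 µl suspension into 384-well plates already holding compound and incubated for 72 h. Each compound was tested at 5 concentrations in 10-fold steps across its own 10,000-fold range. Plates were normalised to 0.1 % DMSO and a positive kill control after CellTox Green and then CellTiter-Glo readings. The area under the fitted dose-response curve served as the basis for the drug sensitivity score.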

EC50, CellTiter-Glo (BT-549 [14]): 0.039 µM
EC50, CellTiter-Glo (MDA-MB-453 [15]): 0.0986 µM
EC50, CellTiter-Glo (MDA-MB-436): 0.0298 µM
EC50, CellTiter-Glo (HCC1937 [20]): 0.0485 µM
EC50, CellTiter-Glo (MDA-MB-231 [22]): 0.0276 µM
EC50, CellTiter-Glo (SK-BR-3): 0.0268 µM
EC50, CellTiter-Glo (HCC1599 [23]): 0.0872 µM
EC50, CellTiter-Glo (HCC1143 [24]): 0.0513 µM
SMILES: Cc1ccc([N+](=O)[O-])cc1S(=O)(=O)N(C)/N=C/c1cnc2ccc(Br)cn12 [PIK-75]
EC50, CellTox Green (BT-549 [1]): 0.274 µM
EC50, CellTox Green (BT-474): 0.161 µM
EC50, CellTox Green (MDA-MB-468): 0.178 µM
EC50, CellTox Green (MDA-MB-453 [2]): 0.597 µM
EC50, CellTox Green (Hs578T [3]): 0.042 µM
EC50, CellTox Green (MCF-10A [4]): 0.0166 µM
EC50, CellTox Green (DU-4475 [5]): 0.0238 µM
EC50, CellTox Green (MFM-223 [6]): 0.582 µM
EC50, CellTox Green (HCC1937 [7]): 6.4 µM
EC50, CellTox Green (CAL-51 [8]): 0.00621 µM
EC50, CellTox Green (MDA-MB-231 [9]): 0.00639 µM
EC50, CellTox Green (HDQ-P1 [10]): 0.105 µM
EC50, CellTox Green (HCC1599 [11]): 0.0339 µM
EC50, CellTox Green (HCC1143 [12]): 0.182 µM
EC50, CellTox Green (CAL-85-1 [13]): 0.0316 µM
EC50, CellTiter-Glo (Hs578T [16]): 0.0354 µM
EC50, CellTiter-Glo (MCF-10A [17]): 0.0457 µM
EC50, CellTiter-Glo (DU-4475 [18]): 0.0353 µM
EC50, CellTiter-Glo (MFM-223 [19]): 0.0522 µM
EC50, CellTiter-Glo (CAL-51 [21]): 0.0213 µM
EC50, CellTiter-Glo (CAL-120): 0.0292 µM
EC50, CellTiter-Glo (CAL-148): 0.0211 µM
EC50, CellTiter-Glo (CAL-85-1 [25]): 0.0306 µM
drug sensitivity score (HDQ-P1 [26]): 11.6
